# Assay results reported in a melting point compilation (Tetko et al.; mined from patent text by program, amines drawn as free bases though some values may be those of a salt).
row,melting point [°C],Structure (SMILES)
1,139 to 140,CCCCc1cn2nc3c(c(=O)n(CCC)c(=O)n3Cc3ccccc3)c2n1C
2,135 to 140,CCOC(=O)c1cn(Cc2ccccc2)c2cc(C(C)C)nn2c1=O
3,86 to 89,COC1c2c(c(C)nn2-c2ccccn2)C(=O)CC1(C)C (centres undefined)
4,203 to 206,c1ccc2nc(COc3ccc(CCc4ccc(-c5nnn[nH]5)cc4)cc3)ccc2c1
5,176 to 178,Cc1c(=O)n(Cc2ccccc2)c(=O)n2cc(C(=O)NCc3ccccc3)sc12
6,76 to 79,COC(=O)C=C1NCCOC1=O
7,76 to 80,CC1(C)CC(=O)OC1CC(=O)c1ccc(Cl)cc1 (centres undefined)
8,114,O=C(O)CC(=Cc1ccccc1)C(=O)O
9,106 to 108,CC(=Cc1ccc(N)cc1)c1ccc2c(c1)C(C)(C)CCC2(C)C
10,100 to 101,COC(=O)c1ccc(OC)c(O)c1O
11,120,CCC(C)N(C)C(=O)c1cc(-c2ccc(C)c(C)c2)c2sccc2c1 (centres undefined)
12,208 to 211,CCOC(=O)c1cn(-c2ccc(F)cc2F)c2nc(N3CCNCC3)c(F)cc2c1=O
13,107 to 109,COc1ccc(NN=C(Sc2c(C)cccc2C)C(C)=O)cc1
14,200 to 202,COCCN(C)CCc1c(-c2ccc(N)cc2)sc2c1c(=O)n(-c1ccc3c(c1)OCO3)c(=O)n2Cc1c(F)cccc1F
15,67 to 70,CCCOCCOC(=O)C1=C(C)NC(C)=C(S(=O)(=O)N(C)CCOC)C1c1cccc([N+](=O)[O-])c1 (centres undefined)
16,104 to 105,O=C(c1ccc(OC[C@H](O)CO)cc1)c1ccc([N+](=O)[O-])cc1
17,175 to 177,Nc1nc2ccccc2c2c1ncn2CCCCS(=O)(=O)c1ccccc1
18,> 300,Nc1cc2[nH]c(=O)c(C(=O)O)nc2cc1F
19,103 to 106,CCC1(CCCCN2CCN(c3ccc(C)c(Cl)c3)CC2)C(=O)Nc2ccccc21 (centres undefined)
20,210 to 212,COc1cccc(Nc2cccc3c2C(=O)N(C2CCC(=O)NC2=O)C3=O)c1 (centres undefined)
21,100 to 109,COc1cc(N2CCC(N3CCCN(C)CC3)CC2)ccc1Nc1ncc2ccc(-c3ccccc3N(C)S(C)(=O)=O)n2n1
22,161 to 163,Oc1ccc(Br)cc1C=Nc1cc(Cl)cc(Cl)c1
23,236 to 240,Cc1cnc2c(NC(=O)c3c(Cl)cccc3Cl)ccc(C)c2c1Cl

row,melting point [°C],Structure (SMILES)
1,259 to 261,O=C(c1ccccc1C(c1ccc(O)cc1)c1ccc(O)cc1)N1CCSCC1
2,113 to 114,Cc1cc2c(cc1Br)cc1n2[C@H](C)CN(C(=O)OC(C)(C)C)C1
3,89 to 93,COC(=O)C(C)(C)CC(=O)c1ccc(-n2ccnc2)cc1
4,158 to 160,O=c1[nH]c2ccccc2n1CCN1CCN(c2cc(C(F)(F)F)ccc2O)CC1
5,116 to 118,CCCOc1cc(C)c(Cl)c2c(=O)c3ccccc3sc12
6,83 to 86,CN(Cc1ccco1)C(=O)C=C1OC(C)(C)OC1=O
7,187 to 188,Cc1c(Cc2cccc(C(F)(F)F)c2)sc2c(-c3cccc(C(=O)NCC(N)=O)c3)cccc12
8,220 to 222,CC(=O)c1cccc(-c2cc3c(=O)n(NS(C)(=O)=O)c(=O)[nH]c3cc2C(F)(F)F)c1
9,211,Clc1ccc(-c2n[nH]c(SC3CCNCC3)c2-c2ccncc2)cc1
10,351 to 354,O=c1nc(-c2ccccc2)c2cc3c(cc2[nH]1)OCO3
11,145 to 146,COC=C(C(=O)OC)n1ccc2ccc(-c3csc(-c4ccccc4)n3)cc21
12,183 to 189,CN1C(=O)CC[C@]2(C)c3ccc(Sc4nc(-c5ccccc5)cc5ccccc45)cc3CC[C@@H]12
13,65 to 67,CCC(C)c1ccc(N(Cc2ccccc2)C(=N)N)cc1 (centres undefined)
14,160 to 162,O=CN(O)C(CCO)CS(=O)(=O)c1ccc(-c2ccc(F)cc2)cc1 (centres undefined)
15,201 to 202,Cc1c(Cc2cccc(C(F)(F)F)c2)sc2c(-c3cc(C(=O)NCCO)ccn3)cccc12
16,115 to 118,Cc1cc(C(=O)N[C@@H](CC(C)C)C(=O)N[C@@H](C(C)C)[C@@H](O)c2c(-c3ccccc3)c2=O)n(C)n1
17,198 to 210,O=C(O)C1=Cc2cccc(F)c2OC1C(F)(F)F (centres undefined)
18,143,COc1cccc(Oc2c(NS(=O)(=O)c3ccc(C(C)(C)C)cc3)nc(C(=O)Nc3ccccc3)nc2OCCO)c1
19,83,COP(=O)(OC)c1cc(Oc2ccc(C(F)(F)F)cc2Cl)ccc1[N+](=O)[O-]
20,156 to 158,Cc1nc(CO)n(Cc2ccccc2)c1C
21,50 to 52,CC(=O)c1ccc(C2=CCC(C)CC2)cc1 (centres undefined)
22,288 to 290,CC(=NNc1ccc(C2=NNC(=O)CC2)cc1)c1ccc(C#N)cc1
23,156 to 157,CC(=O)N[C@@H](C)COc1cc(-c2nc3cc(OCC4CC4)ccc3o2)on1

row,melting point [°C],Structure (SMILES)
1,218 to 219,Cc1nnc(-c2ccc3occ(-c4ccc(S(C)(=O)=O)c(OC(F)(F)F)c4)c3c2)o1
2,210 to 220,N#Cc1ccc2c(c1)c1cc(C(=N)Nc3cccc(C(F)(F)F)c3)ccc1n2Cc1ccccc1
3,95 to 105,COc1cccc(NC(=O)NC2CC(c3ccccc3)CC(Cc3ccccc3)N(CC(=O)OC(C)(C)C)C2=O)c1 (centres undefined)
4,252 to 253,COc1ccc(Cn2c(=O)[nH]c3ccc(Cl)cc3c2=O)cc1
5,142,Cc1cc(C)nc(NC(=O)c2ccncc2)c1
6,100 to 102,Nc1c(-c2ccccc2)cc(-c2ccccc2)c2cccnc12
7,185 to 187,CNc1nc(-c2ccc(O)c(F)c2)cc2c(OC)cccc12
8,176 to 178,COc1cc(C(C)C)c(Oc2cnc(NC(=O)CNC3CCCC3)nc2N)cc1I
9,226,CC(=O)OC1CSC(Oc2ccc(-c3ccnc(F)c3)nc2Cl)C(OC(C)=O)C1OC(C)=O (centres undefined)
10,235 to 236,CCOC(=O)c1nc2cc(Br)c(Br)cc2[nH]c1=O
11,71 to 72,CCCCCCCCCCCCCCCCCNC(=O)OCC(CO)Oc1ccon1 (centres undefined)
12,250,COC(=O)CCc1ccc(N2C(=O)CN(c3ccc(C(=N)NC(=O)OC)cc3)C2=O)cc1
13,219 to 222,Cc1cccc(Nc2cc(Nc3ccc(OCCN(C)C)cc3)ncn2)c1
14,177 to 178,CC(C)(C)OC(=O)[C@H](Cc1ccc(O)cc1)NC(=O)c1c(Cl)cccc1Cl
15,211,O=C1c2cccc3cc4ccccc4c(c23)C(=O)N1CCO
16,199 to 202,O=S(=O)(C(=CNc1ccccc1)S(=O)(=O)c1ccccc1)c1ccccc1
17,112 to 114,CC(=O)OC(Cn1cncn1)(CC(Cl)(Cl)Cl)c1ccc(Cl)cc1 (centres undefined)
18,178,CC(C)N1CCC(=C2c3ccn(C)c3CCn3ccnc32)CC1
19,159 to 160,CC(C)Oc1c(C(=O)O)sc(-c2ccccc2)c1Br
20,270,Cc1cc(-c2cc(C(F)F)n3ncc(C(=O)Nc4cccc(S(C)(=O)=O)c4)c3n2)ccc1Cl
21,97 to 98,CCc1nnc(-c2ccc(F)c(F)c2Nc2ccc(I)cc2F)o1
22,187 to 191,COCCc1nc2c(N)nc3cc(-c4ccccc4)ccc3c2n1CCCN1CCCC1=O

row,Structure (SMILES),melting point [°C]
1,O=C1CC(c2cccnc2)=NN1c1ccc(O)cc1,> 250
